According to article PMC12647645, “Structural interactions of BWC0977 with Klebsiella pneumoniae topoisomerase IV and biochemical basis of its broad-spectrum activity” (Communications Biology, 2025):
Values after ≈ are worked out from the molar mass of the structure shown. Like-named read-outs stand apart in the source and are kept apart here.

Tests used:
[1] = tested on: E. coli MG1655 (GyrA WT, ParC WT); test: microbe, parasite or virus in culture; format: cell-based; settings: Escherichia coli
[2] = tested on: E. coli MG1655 GyrA D82N, ParC WT; test: microbe, parasite or virus in culture; format: cell-based; settings: Escherichia coli
[3] = tested on: E. coli MG1655 GyrA WT, ParC D79N; test: microbe, parasite or virus in culture; format: cell-based; settings: Escherichia coli
[4] = tested on: E. coli MG1655 GyrA D82N, ParC D79N; test: microbe, parasite or virus in culture; format: cell-based; settings: Escherichia coli
[5] = tested on: E. coli MG1655 GyrA M120A, ParC M118A; test: microbe, parasite or virus in culture; format: cell-based; settings: Escherichia coli
[6] = tested on: E. coli MG1655 GyrA R121K, ParC WT; test: microbe, parasite or virus in culture; format: cell-based; settings: Escherichia coli
[7] = tested on: E. coli MG1655 GyrA WT, ParC R119K; test: microbe, parasite or virus in culture; format: cell-based; settings: Escherichia coli
[8] = molecular target: T1, E. coli gyrase (Escherichia coli, UniProt P0AES4+P0AES6); test: biochemical; format: biochemical
T1 construct: purchased Inspiralis

[9] = molecular target: T2, E. coli topoisomerase IV (Escherichia coli, UniProt P0AFI2+P20083); test: biochemical; format: biochemical; settings: read-out: IC50 E. coli topo IV decatenation
T2 construct: purchased Inspiralis

[10] = tested on: A. baumannii ATCC 19606; test: MIC broth microdilution; format: cell-based; settings: Acinetobacter baumannii
[11] = tested on: A. baumannii ATCC 19606 resistant mutant colonies (mutant 1-5); test: microbe, parasite or virus in culture; format: cell-based; settings: Acinetobacter baumannii
[12] = molecular target: Human topo IIα (Homo sapiens, UniProt P11388); test: Human topo IIα decatenation assay; format: biochemical
Method: (§1) Human topo IIα (0.9 nM) and topo IIß (2.2 nM) decatenation assays were performed following the same protocol used for bacterial topoisomerase IV decatenation assays. The assay buffer was made of 50 mM Tris. HCl (pH 7.5), 125 mM NaCl, 10 mM MgCl2, 5 mM DTT, and 100 μg/mL albumin.

[13] = molecular target: Human topo IIß (Homo sapiens, UniProt Q02880); test: Human topo IIß decatenation assay; format: biochemical
Method: as §1

[14] = ATCC19606, WT, Supplementary Table 4, read-out: MIC 90 in (μg/mL), A. baumannii ATCC 19606 (WT)
[15] = ATCC19606, read-out: MIC 90 in (μg/mL), resistant mutant colony 3
[16] = ATCC19606, read-out: MIC 90 in (μg/mL), resistant mutant colony 5
[17] = ATCC19606, read-out: MIC 90 in (μg/mL), resistant mutant colony 1
[18] = ATCC19606, read-out: MIC 90 in (μg/mL), resistant mutant colony 2
[19] = ATCC19606, read-out: MIC 90 in (μg/mL), resistant mutant colony 4

CC1(C)S[C@@H]2[C@H](NC(=O)[C@H](N)c3ccccc3)C(=O)N2[C@H]1C(=O)O [Ampicillin]
MIC [1]: 5 µg/mL (≈ 14.3 µM)
MIC [2]: 5 µg/mL (≈ 14.3 µM)
MIC [3]: 2.5 µg/mL (≈ 7.15 µM)
MIC [4]: 3.3 µg/mL (≈ 9.44 µM)
MIC [5]: 4.2 µg/mL (≈ 12 µM)
MIC [6]: 4.2 µg/mL (≈ 12 µM)
MIC [7]: 5 µg/mL (≈ 14.3 µM)

C[C@H]1COc2c(N3CCN(C)CC3)c(F)cc3c(=O)c(C(=O)O)cn1c23 [Levofloxacin]
IC50 [8]: 390 nM
IC50 [9]: 13 µM
MIC [1]: 0.03 µg/mL (≈ 0.083 µM)
MIC [2]: 0.13 µg/mL (≈ 0.36 µM)
MIC [3]: 0.02 µg/mL (≈ 0.0553 µM)
MIC [4]: 0.25 µg/mL (≈ 0.692 µM)
MIC [5]: 0.02 µg/mL (≈ 0.0553 µM)
MIC [6]: 0.08 µg/mL (≈ 0.221 µM)
MIC [7]: 0.04 µg/mL (≈ 0.111 µM)

C[C@@H](O)[C@H]1C(=O)N2C(C(=O)O)=C(S[C@@H]3CN[C@H](C(=O)N(C)C)C3)[C@H](C)[C@H]12 [Meropenem]
MIC90 [10, 14]: 0.3 µg/mL (≈ 0.782 µM)
MIC90 [11, 15]: 0.15 µg/mL (≈ 0.391 µM)
MIC90 [11, 16]: 0.6 µg/mL (≈ 1.56 µM)

CO[C@@H]1[C@@H](OC(N)=O)[C@@H](O)[C@H](Oc2ccc3c(O)c(NC(=O)c4ccc(O)c(CC=C(C)C)c4)c(=O)oc3c2C)OC1(C)C [Novobiocin]
MIC90 [10, 14]: 10 µg/mL (≈ 16.3 µM)

CO[C@H]1/C=C/O[C@@]2(C)Oc3c(C)c(O)c4c(O)c(c(/C=N/N5CCN(C)CC5)c(O)c4c3C2=O)NC(=O)/C(C)=C\C=C\[C@H](C)[C@H](O)[C@@H](C)[C@@H](O)[C@@H](C)[C@H](OC(C)=O)[C@@H]1C [Rifampicin]
MIC90 [10, 14]: 2.5 µg/mL (≈ 3.04 µM)
MIC90 [11, 17]: 1.25 µg/mL (≈ 1.52 µM)

CC[C@H]1OC(=O)[C@@](C)(F)C(=O)[C@H](C)[C@@H](O[C@@H]2O[C@H](C)C[C@H](N(C)C)[C@H]2O)[C@](C)(OC)C[C@@H](C)C(=O)[C@H](C)[C@H]2N(CCCCn3cc(-c4cccc(N)c4)nn3)C(=O)O[C@]12C [Solithromycin]
MIC90 ([10]; ATCC19606, read-out: MIC 90 in (μg/mL), A. baumannii ATCC 19606 (WT)): 2.5 µg/mL (≈ 2.96 µM)
MIC90 [11, 17]: 5 µg/mL (≈ 5.92 µM)
MIC90 [11, 18]: 2.5 µg/mL (≈ 2.96 µM)
MIC90 [11, 15]: 2.5 µg/mL (≈ 2.96 µM)
MIC90 [11, 19]: 5 µg/mL (≈ 5.92 µM)
MIC90 [11, 16]: 2.5 µg/mL (≈ 2.96 µM)

COc1cc([C@@H]2c3cc4c(cc3[C@@H](O[C@@H]3O[C@@H]5CO[C@@H](c6cccs6)O[C@H]5[C@H](O)[C@H]3O)[C@H]3COC(=O)[C@H]23)OCO4)cc(OC)c1O [Teniposide]
IC50 ([12]; read-out: IC50 Human topo IIα decatenation): 18 ± 5 µM
IC50 [13]: 92 µM

CN(C)[C@@H]1C(O)=C(C(N)=O)C(=O)[C@@]2(O)C(O)=C3C(=O)c4c(O)cccc4[C@@](C)(O)[C@H]3C[C@@H]12 [Tetracycline]
MIC90 [10, 14]: 0.3 µg/mL (≈ 0.675 µM)
MIC90 [11, 17]: 0.6 µg/mL (≈ 1.35 µM)
MIC90 [11, 18]: 0.6 µg/mL (≈ 1.35 µM)
MIC90 [11, 15]: 0.6 µg/mL (≈ 1.35 µM)
MIC90 [11, 19]: 0.6 µg/mL (≈ 1.35 µM)
MIC90 [11, 16]: 0.6 µg/mL (≈ 1.35 µM)

C[C@@H]1CN2c3c(cc4c(N5C(=O)OC[C@@H]5C)noc4c3F)CC3(C(=O)NC(=O)NC3=O)[C@H]2[C@H](C)O1 [Zoliflodacin]
IC50 [8]: 800 nM
IC50 [9]: 27 ± 12 µM
IC50 [12]: > 200 µM
